Measured values from PubChem BioAssay (NCI).
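Step 1: Grow cells in 96-well plates. Step 2: Expose to compound for 48 hours at 5 concentrations. Step 3: Interpolate endpoints linearly; if unreached, use highest concentration. GI50 = concentration required for 50% inhibition of growth. The concentration for full growth arrest is given as TGI.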

What was measured:
Experiment in all cases: NCI anticancer screen, dose series, 48 h
[1] = test system: OVCAR-8 ovarian
[2] = test system: DU-145 prostate
[3] = test system: HT29 colon
[4] = test system: CAKI-1 renal
[5] = test system: M14 melanoma
[6] = test system: NCI-H522 lung
[7] = test system: MCF7 breast
[8] = test system: T-47D breast
[9] = test system: NCI-H226 lung
[10] = test system: A498 renal

Row | SMILES | TGI [1] | TGI [2] | TGI [3] | TGI [4] | TGI [5] | TGI [6] | TGI [7] | TGI [8] | TGI [9] | TGI [10] | GI50 [1] | GI50 [2] | GI50 [3] | GI50 [4] | GI50 [6] | GI50 [7] | GI50 [8] | GI50 [10]
1 | CN(c1ccc(Cl)cc1)S(=O)(=O)c1ccccc1 | > 100 µM | > 100 µM | > 100 µM | > 100 µM | > 100 µM | > 100 µM | > 100 µM | > 100 µM | > 100 µM | – | – | – | – | – | – | – | – | –
2 | O=c1cnc2cc3ccccc3cc2[nH]1 | > 100 µM | – | > 100 µM | > 100 µM | > 100 µM | > 100 µM | > 100 µM | – | > 100 µM | > 100 µM | – | – | – | – | – | – | – | –
3 | Nc1cc2ncnc(Nc3cccc(Br)c3)c2cn1 | > 100 µM | – | > 100 µM | > 100 µM | > 100 µM | – | – | > 100 µM | 71 µM | 36.1 µM | – | – | – | – | – | – | – | –
4 | Cc1cc(C)c(C#N)c(SC(=S)NC(=O)c2ccccc2)n1 | – | > 100 µM | > 100 µM | > 100 µM | > 100 µM | > 100 µM | > 100 µM | > 100 µM | > 100 µM | > 100 µM | – | – | – | – | – | – | – | –
5 | CC(C)C(=O)/C=C/c1ccccc1 | – | – | > 100 µM | – | > 100 µM | > 100 µM | – | – | – | > 100 µM | – | – | – | – | – | – | – | –
6 | O=C(O)c1cc(Nc2c(O)c3c(c(O)c2Cl)C(=O)C=CC3=O)ccc1O | > 10 µM | > 10 µM | > 10 µM | > 10 µM | > 10 µM | – | > 10 µM | > 10 µM | > 10 µM | > 10 µM | – | – | – | – | – | – | – | –
7 | C/C=C\C(CC(=O)NCCc1c[nH]c2ccccc12)CC(=O)OC (stereo unspecified) | > 100 µM | > 100 µM | > 100 µM | > 100 µM | > 100 µM | > 100 µM | > 100 µM | > 100 µM | – | > 100 µM | – | – | – | – | – | – | – | –
8 | C/C(=C\COP(=O)(O)OP(=O)(O)O)CC/C=C(\C)CNc1ccccc1 | > 50 µM | > 50 µM | > 50 µM | > 50 µM | > 50 µM | > 50 µM | > 50 µM | > 50 µM | > 50 µM | – | – | – | – | – | – | – | – | –
9 | COc1ccc(Nc2nc(NNC(=O)Cc3ccccc3)nc(NNC(=O)c3ccncc3)n2)cc1 | > 10 µM | > 10 µM | > 10 µM | > 10 µM | > 10 µM | > 10 µM | > 10 µM | > 10 µM | – | > 10 µM | – | – | – | – | – | – | – | –
10 | CCCOC1OC(CS(=O)(=O)O)C(OC(C)=O)C(OC(C)=O)C1OC(C)=O (stereo unspecified) | > 100 µM | > 100 µM | > 100 µM | > 100 µM | > 100 µM | – | > 100 µM | > 100 µM | > 100 µM | > 100 µM | – | – | – | – | – | – | – | –
11 | CCOC(=O)NC(OCc1ccccc1)(C(=O)OC)C(F)(F)F (stereo unspecified) | > 100 µM | > 100 µM | > 100 µM | 87.1 µM | > 100 µM | > 100 µM | > 100 µM | > 100 µM | – | – | – | – | – | – | – | – | – | –
12 | Cc1ccc(Cl)c2c(=O)cc(-c3ccccc3)[nH]c12 | > 100 µM | – | > 100 µM | > 100 µM | > 100 µM | > 100 µM | – | – | > 100 µM | – | – | – | – | – | – | – | – | –
13 | CCCCN(CCCC)C1=Nc2ccccc2-n2c(nnc2C(=O)OCC)C1 | > 100 µM | > 100 µM | > 100 µM | > 100 µM | > 100 µM | > 100 µM | > 100 µM | > 100 µM | > 100 µM | – | – | – | – | – | – | – | – | –
14 | COc1ccc(C(=O)/C=C/c2ccc(OCCCOc3ccc(/C=C/C(=O)c4ccc(OC)c(OC)c4)cc3)cc2)cc1OC | > 100 µM | > 100 µM | > 100 µM | > 100 µM | > 100 µM | – | > 100 µM | > 100 µM | > 100 µM | – | – | – | – | – | – | – | – | –
15 | CN1CCCC(OC(=O)c2cc3cc(CCl)ccc3oc2=O)C1 (stereo unspecified) | > 100 µM | > 100 µM | 46.9 µM | 60.5 µM | 39.3 µM | 34.7 µM | 50.1 µM | > 100 µM | 58.1 µM | – | – | – | – | – | – | – | – | –
16 | O=C1NC(=S)N/C1=C\c1ccc(Sc2ccccc2C(=O)O)s1 | > 100 µM | > 100 µM | > 100 µM | > 100 µM | – | 44.4 µM | > 100 µM | > 100 µM | > 100 µM | > 100 µM | – | – | – | – | – | – | – | –
17 | Cc1cccc(=O)c([O-])c1.Cc1cccc(=O)c([O-])c1.Cc1cccc(=O)c([O-])c1.Cc1cccc(=O)c([O-])c1.[Th+4] | > 100 µM | – | > 49.4 µM | 86.6 µM | 42.1 µM | – | – | – | > 100 µM | 81.6 µM | – | – | – | – | – | – | – | –
18 | CC1Cc2c(cc(N)nc2Br)NC1=O (stereo unspecified) | > 100 µM | > 100 µM | > 100 µM | > 100 µM | > 100 µM | > 100 µM | > 100 µM | > 100 µM | > 100 µM | – | – | – | – | – | – | – | – | –
19 | COc1c(-c2ccc(F)cc2)oc2cc(O)cc(O)c2c1=O | 69.4 µM | 96.5 µM | 44.6 µM | 48.5 µM | > 100 µM | 44.2 µM | > 100 µM | 56.9 µM | – | > 100 µM | – | – | – | – | – | – | – | –
20 | O=C(NCCNCCO)N/N=C/c1ccccc1 | > 100 µM | – | > 100 µM | – | > 100 µM | > 100 µM | – | – | > 100 µM | – | – | – | – | – | – | – | – | –
21 | COc1ccc(-c2cc(-c3ccc(OC)c(OC)c3)nc(SCCCC(=O)NO)n2)cc1 | > 100 µM | 17.7 µM | > 100 µM | 2.37 µM | – | 5.09 µM | 10.2 µM | > 100 µM | – | 3.06 µM | 0.782 µM | 1.53 µM | 1.87 µM | 0.431 µM | 0.787 µM | 2.75 µM | 1.42 µM | 1.39 µM
22 | CC(=O)OCC1(CNc2nc(N)ncc2C#N)CC(CCc2ccccc2)C1 (stereo unspecified) | > 100 µM | > 100 µM | > 100 µM | > 100 µM | – | > 100 µM | > 100 µM | > 100 µM | > 100 µM | > 100 µM | – | – | – | – | – | – | – | –
23 | COc1ccc(OC)c(-c2cn3c(n2)sc2ccccc23)c1 | > 100 µM | > 100 µM | > 100 µM | > 100 µM | – | > 100 µM | > 100 µM | > 100 µM | > 100 µM | – | – | – | – | – | – | – | – | –
24 | c1ccc2c(c1)ccc1nc(-c3ccc4c(c3)OCO4)c3c(c12)CCC3 | > 100 µM | – | > 100 µM | > 100 µM | > 100 µM | – | > 100 µM | > 100 µM | > 100 µM | > 100 µM | – | – | – | – | – | – | – | –
25 | COc1ccc2c3c([nH]c2c1)-c1nc2ccccc2c(=O)n1CC3 | > 25 µM | – | – | – | > 25 µM | > 25 µM | > 25 µM | > 25 µM | – | – | – | – | – | – | – | – | – | –
